Inhibition and K data for five compounds are collected here from ChEMBL document CHEMBL4177591, “Synthesis and evaluation of the inhibitory activity of the four stereoisomers of the potent and selective human γ-glutamyl transpeptidase inhibitor GGsTop” (Bioorg Med Chem Lett, 2017).

Test [1] is filed under the species Homo sapiens. The test is described as follows: Inhibition of human GGT assessed as inactivation rate constant using gamma-Glu-AMC as substrate measured for 10 mins by fluorescence assay.
For test [2], the species on record is Homo sapiens. Description: Inhibition of human GGT at 0.1 mM using gamma-Glu-AMC as substrate measured for 10 mins by fluorescence assay.

Calls of active or inactive are those of the source. The calls are words filed in the database; no cut-off is given here.

As for `CO[P@@](=O)(CC[C@H](N)C(=O)O)Oc1cccc(CC(=O)O)c1`, in the test listed under Homo sapiens [1], the inhibition entry was “inactive”.

Consider `CO[P@](=O)(CC[C@@H](N)C(=O)O)Oc1cccc(CC(=O)O)c1`, for which, in the test filed under Homo sapiens [2], the K came to 21.5 M⁻¹ s⁻¹.

In the case of `COP(=O)(CCC(N)C(=O)O)Oc1cccc(CC(=O)O)c1` (stereo not given), the K in the test filed under Homo sapiens [1] is 51 M⁻¹ s⁻¹.

On to `CO[P@@](=O)(CC[C@@H](N)C(=O)O)Oc1cccc(CC(=O)O)c1`, for which the inhibition entry in the test filed under Homo sapiens [1] is “inactive”.

Compound `CO[P@](=O)(CC[C@H](N)C(=O)O)Oc1cccc(CC(=O)O)c1` showed a K in the test filed under Homo sapiens [2] of 174 M⁻¹ s⁻¹.
